# Reference: patent US10344025B2, “GLS1 inhibitors for treating disease” (Board of Regents, The University of Texas System, priority 2014, dated 2019)
# Legend:
# [1] = molecular target: purified recombinant human GAC (GLS1) (Homo sapiens (Human), UniProt O94925); experiment: GLS1 Enzymatic Activity Assay (dual-coupled enzymatic assay, resorufin/Amplex UltraRed readout); type: biochemical;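 note: glutamate from GAC coupled via glutamate oxidase and peroxidase to resorufin, read as fluorescence (ex 530, em 590 nm) kinetically or at 20 min, four-parameter logistic IC50 fit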
# [2] = tested on: A549 cells; experiment: Proliferation Assay (A549 viability, Cell Titer Fluor, 72 hours); type: cell-based; details: Homo sapiens, A549, 72 h
# Summary of the method: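 A549 cells seeded at 1000 cells/well, rested 24 h, then exposed to compound in 0.5% DMSO for 72 h at 37 °C. Viability read by Cell Titer Fluor fluorescence; IC50 from four-parameter logistic fit.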
# Chain of purified recombinant human GAC (GLS1) (O94925 other isoform, or with tags, fused parts or gaps): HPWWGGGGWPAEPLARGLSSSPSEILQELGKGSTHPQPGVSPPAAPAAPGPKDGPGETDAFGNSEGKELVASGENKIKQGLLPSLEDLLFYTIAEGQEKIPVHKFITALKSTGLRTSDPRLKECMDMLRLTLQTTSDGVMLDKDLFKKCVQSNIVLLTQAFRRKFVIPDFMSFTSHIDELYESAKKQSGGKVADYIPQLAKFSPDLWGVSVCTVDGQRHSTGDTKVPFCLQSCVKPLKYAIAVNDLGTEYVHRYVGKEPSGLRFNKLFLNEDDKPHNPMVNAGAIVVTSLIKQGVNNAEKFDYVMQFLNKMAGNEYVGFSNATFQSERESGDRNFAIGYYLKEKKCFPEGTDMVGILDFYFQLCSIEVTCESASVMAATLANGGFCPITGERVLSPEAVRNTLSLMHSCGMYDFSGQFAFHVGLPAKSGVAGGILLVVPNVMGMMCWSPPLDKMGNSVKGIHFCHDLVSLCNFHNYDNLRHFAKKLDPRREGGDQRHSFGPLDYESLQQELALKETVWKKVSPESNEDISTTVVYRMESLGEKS
IC50 [1] [nM],EC50 [2] [nM],SMILES
< 100,< 100,"O=C(Cc1cccc(OC(F)(F)F)c1)Nc1cn(CCC(F)Cn2cc(C(=O)NCc3cc(C(F)(F)F)ccn3)nn2)nn1 (stereo not shown) [Example 407, 1-[2-fluoro-4-(4-{2-[3-(trifluoromethoxy)phenyl]acetamido}-1H-1,2,3-triazol-1-yl)butyl]-N-{[4-(trifluoromethyl)pyridin-2-yl]methyl}-1H-1,2,3-triazole-4-carboxamide]"
< 100,< 100,"O=C(Cc1cccc(OC(F)(F)F)c1)Nc1cn(CCC(F)Cn2cc(C(=O)NCc3cccc(OC(F)(F)F)c3)nn2)nn1 (stereo not shown) [Example 408, 1-[2-fluoro-4-(4-{2-[3-(trifluoromethoxy)phenyl]acetamido}-1H-1,2,3-triazol-1-yl)butyl]-N-{[3-(trifluoromethoxy)phenyl]methyl}-1H-1,2,3-triazole-4-carboxamide]"
500 to 5000,500 to 5000,"O=C(CN1CC(F)(F)C1)Nc1cn(CC(F)CCn2cc(C(=O)NCc3ncccc3F)nn2)nn1 (stereo not shown) [Example 410, 1-(4-{4-[2-(3,3-difluoroazetidin-1-yl)acetamido]-1H-1,2,3-triazol-1-yl}-3-fluorobutyl)-N-[(3-fluoropyridin-2-yl)methyl]-1H-1,2,3-triazole-4-carboxamide]"
< 100,< 100,"O=C(Cc1cccc(OC(F)(F)F)c1)Nc1cn(CC(F)CCn2cc(C(=O)NCc3ccc(C(F)(F)F)nc3)nn2)nn1 (stereo not shown) [Example 411, 1-[3-fluoro-4-(4-{2-[3-(trifluoromethoxy)phenyl]acetamido}-1H-1,2,3-triazol-1-yl)butyl]-N-{[6-(trifluoromethyl)pyridin-3-yl]methyl}-1H-1,2,3-triazole-4-carboxamide]"
< 100,< 100,"O=C(Cc1cc(OC(F)(F)F)ccc1F)Nc1cn(CC(F)CCn2cc(C(=O)NCc3ccc(C(F)(F)F)nc3)nn2)nn1 (stereo not shown) [Example 412, 1-[3-fluoro-4-(4-{2-[2-fluoro-5-(trifluoromethoxy)phenyl]acetamido}-1H-1,2,3-triazol-1-yl)butyl]-N-{[6-(trifluoromethyl)pyridin-3-yl]methyl}-1H-1,2,3-triazole-4-carboxamide]"
< 100,< 100,"O=C(Cc1cccc(OC(F)(F)F)c1)Nc1cn(CCCCn2cc(C(=O)NCc3cc(C(F)(F)F)ccn3)nn2)nn1 [Example 414, 1-[4-(4-{2-[3-(trifluoromethoxy)phenyl]acetamido}-1H-1,2,3-triazol-1-yl)butyl]-N-{[4-(trifluoromethyl)pyridin-2-yl]methyl}-1H-1,2,3-triazole-4-carboxamide]"
< 100,< 100,"O=C(Cc1cc(OC(F)(F)F)ccc1F)Nc1cn(CCC(F)Cn2cc(C(=O)NCc3cc(C(F)(F)F)ccn3)nn2)nn1 (stereo not shown) [Example 418, 1-[2-fluoro-4-(4-{2-[2-fluoro-5-(trifluoromethoxy)phenyl]acetamido}-1H-1,2,3-triazol-1-yl)butyl]-N-{[4-(trifluoromethyl)pyridin-2-yl]methyl}-1H-1,2,3-triazole-4-carboxamide]"
< 100,< 100,"O=C(NCc1ccc(C(F)(F)F)nc1)c1cn(CCC(F)Cn2cc(C(=O)NCc3cc(OC(F)(F)F)ccc3F)nn2)nn1 (stereo not shown) [Example 421, 1-{2-fluoro-4-[4-({[6-(trifluoromethyl)pyridin-3-yl]methyl}carbamoyl)-1H-1,2,3-triazol-1-yl]butyl}-N-{[2-fluoro-5-(trifluoromethoxy)phenyl]methyl}-1H-1,2,3-triazole-4-carboxamide]"
< 100,< 100,"O=C(NCc1cc(OC(F)(F)F)ccc1F)c1cn(CCC(F)Cn2cc(C(=O)NCc3ccc(C(F)(F)F)nc3)nn2)nn1 (stereo not shown) [Example 424, 1-{2-fluoro-4-[4-({[2-fluoro-5-(trifluoromethoxy)phenyl]methyl}carbamoyl)-1H-1,2,3-triazol-1-yl]butyl}-N-{[6-(trifluoromethyl)pyridin-3-yl]methyl}-1H-1,2,3-triazole-4-carboxamide]"
< 100,< 100,"O=C(NCc1cc(OC(F)(F)F)ccc1F)c1cn(CCC(F)Cn2cc(C(=O)NCc3cccc(C(F)(F)F)n3)nn2)nn1 (stereo not shown) [Example 425, 1-{2-fluoro-4-[4-({[2-fluoro-5-(trifluoromethoxy)phenyl]methyl}carbamoyl)-1H-1,2,3-triazol-1-yl]butyl}-N-{[6-(trifluoromethyl)pyridin-2-yl]methyl}-1H-1,2,3-triazole-4-carboxamide]"
< 100,< 100,"O=C(NCc1cc(OC(F)(F)F)ccc1F)c1cn(CCC(F)Cn2cc(C(=O)NCc3ncccc3F)nn2)nn1 (stereo not shown) [Example 427, 1-{2-fluoro-4-[4-({[2-fluoro-5-(trifluoromethoxy)phenyl]methyl}carbamoyl)-1H-1,2,3-triazol-1-yl]butyl}-N-[(3-fluoropyridin-2-yl)methyl]-1H-1,2,3-triazole-4-carboxamide]"
< 100,100 to 500,"O=C(NCc1cccc(OC(F)(F)F)c1)c1cn(CCC(F)Cn2cc(C(=O)NCc3ncccc3F)nn2)nn1 (stereo not shown) [Example 429, 1-{2-fluoro-4-[4-({[3-(trifluoromethoxy)phenyl]methyl}carbamoyl)-1H-1,2,3-triazol-1-yl]butyl}-N-[(3-fluoropyridin-2-yl)methyl]-1H-1,2,3-triazole-4-carboxamide]"

# Continued, molecule first:
SMILES,IC50 [1] [nM],EC50 [2] [nM]
"O=C(CN1CC(F)C1)Nc1cn(CC(F)CCn2cc(C(=O)NCc3ncccc3F)nn2)nn1 (stereo not shown) [Example 409, 1-(3-fluoro-4-{4-[2-(3-fluoroazetidin-1-yl)acetamido]-1H-1,2,3-triazol-1-yl}butyl)-N-[(3-fluoropyridin-2-yl)methyl]-1H-1,2,3-triazole-4-carboxamide]",500 to 5000,> 5000
"O=C(Cc1cc(OC(F)(F)F)ccc1F)Nc1cn(CCCCn2cc(C(=O)NCc3cc(C(F)(F)F)ccn3)nn2)nn1 [Example 413, 1-[4-(4-{2-[2-fluoro-5-(trifluoromethoxy)phenyl]acetamido}-1H-1,2,3-triazol-1-yl)butyl]-N-{[4-(trifluoromethyl)pyridin-2-yl]methyl}-1H-1,2,3-triazole-4-carboxamide]",< 100,< 100
"O=C(Cc1cc(Cl)ccc1F)Nc1cn(CCCCn2cc(C(=O)NCc3cc(Cl)ccc3F)nn2)nn1 [Example 415, 1-(4-{4-[2-(5-chloro-2-fluorophenyl)acetamido]-1H-1,2,3-triazol-1-yl}butyl)-N-[(5-chloro-2-fluorophenyl)methyl]-1H-1,2,3-triazole-4-carboxamide]",< 100,< 100
"O=C(Cc1cc(OC(F)(F)F)ccc1F)Nc1cn(CCC(F)Cn2cc(C(=O)NCc3cccc(OC(F)(F)F)c3)nn2)nn1 (stereo not shown) [Example 416, 1-[2-fluoro-4-(4-{2-[2-fluoro-5-(trifluoromethoxy)phenyl]acetamido}-1H-1,2,3-triazol-1-yl)butyl]-N-{[3-(trifluoromethoxy)phenyl]methyl}-1H-1,2,3-triazole-4-carboxamide]",< 100,< 100
"O=C(Cc1cc(OC(F)(F)F)ccc1F)Nc1cn(CCC(F)Cn2cc(C(=O)NCc3ncccc3F)nn2)nn1 (stereo not shown) [Example 417, 1-[2-fluoro-4-(4-{2-[2-fluoro-5-(trifluoromethoxy)phenyl]acetamido}-1H-1,2,3-triazol-1-yl)butyl]-N-[(3-fluoropyridin-2-yl)methyl]-1H-1,2,3-triazole-4-carboxamide]",< 100,< 100
"O=C(Cc1ccccn1)Nc1cn(CCC(F)Cn2cc(C(=O)NCc3cc(OC(F)(F)F)ccc3F)nn2)nn1 (stereo not shown) [Example 419, 1-(2-fluoro-4-{4-[2-(pyridin-2-yl)acetamido]-1H-1,2,3-triazol-1-yl}butyl)-N-{[2-fluoro-5-(trifluoromethoxy)phenyl]methyl}-1H-1,2,3-triazole-4-carboxamide]",< 100,< 100
"Cc1ccc(CNC(=O)c2cn(CC(F)CCc3nnc(C(=O)NCc4cccc(OC(F)(F)F)c4)s3)nn2)cn1 (stereo not shown) [Example 420, 5-[3-fluoro-4-(4-{[(6-methylpyridin-3-yl)methyl]carbamoyl}-1H-1,2,3-triazol-1-yl)butyl]-N-{[3-(trifluoromethoxy)phenyl]methyl}-1,3,4-thiadiazole-2-carboxamide]",< 100,100 to 500
"O=C(NCc1cccc(C(F)(F)F)n1)c1cn(CCC(F)Cn2cc(C(=O)NCc3cc(OC(F)(F)F)ccc3F)nn2)nn1 (stereo not shown) [Example 422, 1-{2-fluoro-4-[4-({[6-(trifluoromethyl)pyridin-2-yl]methyl}carbamoyl)-1H-1,2,3-triazol-1-yl]butyl}-N-{[-fluoro-5-(trifluoromethoxy)phenyl]methyl}-1H-1,2,3-triazole-4-carboxamide]",< 100,< 100
"O=C(NCc1cc(OC(F)(F)F)ccc1F)c1cn(CCC(F)Cn2cc(C(=O)NCc3ccc(C(F)(F)F)cn3)nn2)nn1 (stereo not shown) [Example 423, 1-{2-fluoro-4-[4-({[2-fluoro-5-(trifluoromethoxy)phenyl]methyl}carbamoyl)-1H-1,2,3-triazol-1-yl]butyl}-N-{[5-(trifluoromethyl)pyridin-2-yl]methyl}-1H-1,2,3-triazole-4-carboxamide]",< 100,< 100
"O=C(NCc1cc(OC(F)(F)F)ccc1F)c1cn(CCC(F)Cn2cc(C(=O)NCc3cc(C(F)(F)F)ccn3)nn2)nn1 (stereo not shown) [Example 426, 1-{2-fluoro-4-[4-({[2-fluoro-5-(trifluoromethoxy)phenyl]methyl}carbamoyl)-1H-1,2,3-triazol-1-yl]butyl}-N-{[4-(trifluoromethyl)pyridin-2-yl]methyl}-1H-1,2,3-triazole-4-carboxamide]",< 100,< 100
"O=C(NCc1cccc(OC(F)(F)F)c1)c1cn(CCC(F)Cn2cc(C(=O)NCc3cc(C(F)(F)F)ccn3)nn2)nn1 (stereo not shown) [Example 428, 1-{2-fluoro-4-[4-({[3-(trifluoromethoxy)phenyl]methyl}carbamoyl)-1H-1,2,3-triazol-1-yl]butyl}-N-{[4-(trifluoromethyl)pyridin-2-yl]methyl}-1H-1,2,3-triazole-4-carboxamide]",< 100,< 100
